Measurements taken from patent publication US6479435B1, “Diaryl ethers and processes for their preparation and herbicidal and desiccant compositions containing them” (ISK Americas Incorporated, priority 1997, dated 2002).

Key:
Format in all cases: in vivo
[1] = tested on: field corn (Zea mays L., var. Dekalb 535, CORN); experiment: Pre-emerge greenhouse test, crop damage rating; details: 14 days after application, rating scale 0-100
In short: (§1)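 Visual 0–100 injury rating (100 = all plants dead) taken 14 days after treatment. Rates of 125–1000 g ai/ha in acetone, 187 l/ha, were sprayed onto soil one day post-sowing; pots were surface-watered to incorporate, then bottom-watered.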

[2] = tested on: upland rice (Oryza sp., var.Tebonnet, RICE); experiment: Pre-emerge greenhouse test, crop damage rating; details: 14 days after application, rating scale 0-100
In short: as §1

[3] = tested on: common ragweed (Ambrosia artemisiifolia L., AMBEL); experiment: Pre-emerge greenhouse herbicide test, phytotoxicity rating; details: 14 days after application, rating scale 0-100
In short: as §1

[4] = tested on: barnyardgrass (Echinochloa crusgalli, ECHCG); experiment: as above; details: 14 days after application, rating scale 0-100
In short: as §1

[5] = tested on: sicklepod (Cassia obtusifolia, CASOB); experiment: as above; details: 14 days after application, rating scale 0-100
In short: as §1

[6] = tested on: Johnsongrass (Sorghum halepense, SORHA); experiment: as above; details: 14 days after application, rating scale 0-100
In short: as §1

[7] = tested on: velvetleaf (Abutilon theophrasti, ABUTH); experiment: as above; details: 14 days after application, rating scale 0-100
In short: as §1

[8] = tested on: lambsquarters (Chenopodium album, CHEAL); experiment: as above; details: 14 days after application, rating scale 0-100
In short: as §1

[9] = tested on: ivyleaf morningglory (Ipomoea hederacea, IPOHE); experiment: as above; details: 14 days after application, rating scale 0-100
In short: as §1

[10] = tested on: green foxtail (Setaria viridis, SETVI); experiment: as above; details: 14 days after application, rating scale 0-100
In short: as §1

[11] = tested on: large crabgrass (Digitaria sanguinalis, DIGSA); experiment: as above; details: 14 days after application, rating scale 0-100
In short: as §1

[12] = tested on: redroot pigweed (Amaranthus retroflexus, AMARE); experiment: as above; details: 14 days after application, rating scale 0-100
In short: as §1

[13] = tested on: common ragweed (Ambrosia artemisiifolia L., AMBEL); experiment: Post-emerge greenhouse herbicide test, phytotoxicity rating; details: 14 days after application
In short: (§2)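 Scores use a 0 (no damage) to 100 (complete kill) scale, taken 14 days after a foliar spray. Acetone solutions with 0.25% v/v non-ionic surfactant were applied by track sprayer at 187 l/ha and 63-1000 g ai/ha to bottom-watered 2-3 leaf plants.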

[14] = tested on: barnyardgrass (Echinochloa crusgalli, ECHCG); experiment: as above; details: 14 days after application
In short: as §2

[15] = tested on: sicklepod (Cassia obtusifolia, CASOB); experiment: as above; details: 500 g al/ha, 14 days after application
In short: as §2

[16] = tested on: Johnsongrass (Sorghum halepense, SORHA); experiment: as above; details: 14 days after application
In short: as §2

[17] = tested on: velvetleaf (Abutilon theophrasti, ABUTH); experiment: as above; details: 14 days after application
In short: as §2

[18] = tested on: lambsquarters (Chenopodium album, CHEAL); experiment: as above; details: 14 days after application
In short: as §2

[19] = tested on: ivyleaf morningglory (Ipomoea hederacea, IPOHE); experiment: as above; details: 14 days after application
In short: as §2

[20] = tested on: green foxtail (Setaria viridis, SETVI); experiment: as above; details: 14 days after application
In short: as §2

[21] = tested on: large crabgrass (Digitaria sanguinalis, DIGSA); experiment: as above; details: 14 days after application
In short: as §2

[22] = tested on: redroot pigweed (Amaranthus retroflexus, AMARE); experiment: as above; details: 14 days after application
In short: as §2

[23] = tested on: soybean (Glycine max L., var. Pella 86, SOY); experiment: Pre-emerge greenhouse test, crop damage rating; details: 14 days after application, rating scale 0-100
In short: as §1

[24] = tested on: soybean (Glycine max L., var. Pella 86, SOY); experiment: Post-emerge greenhouse test, crop damage rating; details: 14 days after application
In short: as §2

[25] = tested on: field corn (Zea mays L., var. Dekalb 535, CORN); experiment: Post-emerge greenhouse test, crop damage rating; details: 14 days after application
In short: as §2

[26] = tested on: upland rice (Oryza sp., var.Tebonnet, RICE); experiment: Post-emerge greenhouse test, crop damage rating; details: 14 days after application
In short: as §2

## Cn1nc(-c2cc(Oc3ncccn3)c(Cl)cc2F)c(Cl)c1C(F)(F)F [Compound 1-7]
[1]; 125 g ai/ha
  crop damage rating CORN: 40
[1]; 500 g ai/ha
  crop damage rating CORN: 70
[2]; 125 g ai/ha
  crop damage rating RICE: 70
[2]; 500 g ai/ha
  crop damage rating RICE: 90
[3]; 125 g ai/ha
  phytotoxicity rating AMBEL: 100
[3]; 500 g ai/ha
  phytotoxicity rating AMBEL: 100
[4]; 125 g ai/ha
  phytotoxicity rating ECHCG: 100
[4]; 500 g ai/ha
  phytotoxicity rating ECHCG: 100
[5]; 125 g ai/ha
  phytotoxicity rating CASOB: 95
[5]; 500 g ai/ha
  phytotoxicity rating CASOB: 90
[6]; 125 g ai/ha
  phytotoxicity rating SORHA: 100
[6]; 500 g ai/ha
  phytotoxicity rating SORHA: 100
[7]; 125 g ai/ha
  phytotoxicity rating ABUTH: 90
[7]; 500 g ai/ha
  phytotoxicity rating ABUTH: 99
[8]; 125 g ai/ha
  phytotoxicity rating CHEAL: 100
[8]; 500 g ai/ha
  phytotoxicity rating CHEAL: 100
[9]; 125 g ai/ha
  phytotoxicity rating IPOHE: 40
[9]; 500 g ai/ha
  phytotoxicity rating IPOHE: 70
[10]; 125 g ai/ha
  phytotoxicity rating SETVI: 100
[10]; 500 g ai/ha
  phytotoxicity rating SETVI: 100
[11]; 125 g ai/ha
  phytotoxicity rating DIGSA: 100
[11]; 500 g ai/ha
  phytotoxicity rating DIGSA: 100
[12]; 125 g ai/ha
  phytotoxicity rating AMARE: 100
[12]; 500 g ai/ha
  phytotoxicity rating AMARE: 100
[13]; 63 g al/ha
  AMBEL phytotoxicity rating (0-100): 95
[13]; 500 g al/ha
  AMBEL phytotoxicity rating (0-100): 100
[14]; 63 g al/ha
  ECHCG phytotoxicity rating (0-100): 100
[14]; 500 g al/ha
  ECHCG phytotoxicity rating (0-100): 100
[15]
  CASOB phytotoxicity rating (0-100): 100
[16]; 63 g al/ha
  SORHA phytotoxicity rating (0-100): 90
[16]; 500 g al/ha
  SORHA phytotoxicity rating (0-100): 100
[17]; 63 g al/ha
  ABUTH phytotoxicity rating (0-100): 100
[17]; 500 g al/ha
  ABUTH phytotoxicity rating (0-100): 100
[18]; 63 g al/ha
  CHEAL phytotoxicity rating (0-100): 100
[18]; 500 g al/ha
  CHEAL phytotoxicity rating (0-100): 100
[19]; 63 g al/ha
  IPOHE phytotoxicity rating (0-100): 100
[19]; 500 g al/ha
  IPOHE phytotoxicity rating (0-100): 100
[20]; 63 g al/ha
  SETVI phytotoxicity rating (0-100): 100
[20]; 500 g al/ha
  SETVI phytotoxicity rating (0-100): 100
[21]; 63 g al/ha
  DIGSA phytotoxicity rating (0-100): 90
[21]; 500 g al/ha
  DIGSA phytotoxicity rating (0-100): 100
[22]; 63 g al/ha
  AMARE phytotoxicity rating (0-100): 100
[22]; 500 g al/ha
  AMARE phytotoxicity rating (0-100): 100
[23]; 125 g ai/ha
  crop damage rating SOY: 0
[23]; 500 g ai/ha
  crop damage rating SOY: 0
[24]; 63 g al/ha
  SOY crop damage rating (0-100): 100
[24]; 500 g al/ha
  SOY crop damage rating (0-100): 100
[25]; 63 g al/ha
  CORN crop damage rating (0-100): 90
[25]; 500 g al/ha
  CORN crop damage rating (0-100): 70
[26]; 63 g al/ha
  RICE crop damage rating (0-100): 100
[26]; 500 g al/ha
  RICE crop damage rating (0-100): 80
